By fraction unbound is commonly meant the share of the substance not bound to proteins or other matrix. A word on the IC50: it is the concentration that inhibits the measured activity by half.

Data set [1] is described as follows: aqueous solubility at pH 7.4. The class given is physicochemical. To be noted: aqueous medium at pH 7.4, pH 7.4, aqueous buffer; read-out: Sol @ pH 7.4.
Method: Selected compounds were assessed for their aqueous solubility, Log D and mouse and human liver microsomal stability.
The nature of another data set: Plasma protein binding. It counts as in vitro ADME. The source says:
Plasma protein binding for Compound 19 was 96.44%.

Another data set has as its target IRAK1 (Homo sapiens, UniProt P51617). The data set is described as follows: SelectScreen kinase profiling, Adapta. It counts as biochemical. On the procedure: The kinase inhibitory potentials of compounds as described herein (e.g., SRI-42127 and SRI-41664) were evaluated by ThermoFisher Scientific's SelectScreen™ Kinase Profiling Service. The following kinase inhibitory assays were utilized: ZLYTE (Madison, WI) for NTRK1, PIM1, and cMET kinases; LanthaScreen Binding (Madison, WI) for AAK1 kinase; and Adapta (Madison, WI) for IRAK1 kinase.

The test system of data set [2] is Bcl2 and Mcl1 mRNAs in PDGx XD456 cell line. Nature of the data set: Taqman quantification of Bcl2/18S and Mcl1/18S mRNA. It counts as cell-based. To be noted: XD456, 10 uM for 24 hours. On the procedure: (§1) The HuR-mRNA co-immunoprecipitation (IP) was performed by utilizing RiboCluster Profiler RIP-assay Kit (MBL International). The quantifications of Bcl2, and 18S transcripts were performed using Taqman technique with the following gene-specific probes: Hs00153350_m1, Hs03003631_g1, and Hs00766187_m1 (ThermoFisher Scientific) for Bcl2, 18S, and Mcl1, respectively.
(§2) mRNA isolation and purification from adherent cells were performed using RNeasy Mini Kit and QIAshredder columns (Qiagen, Valencia, CA).
(§3) HuR protein plays a significant role in the stabilization of the mRNAs of the anti-apoptotic Bcl2-family, which contributes to the protection of genetically unstable glioma cells from apoptosis. Therefore, the Bcl2 family was evaluated in the established and PDGx cell lines after cell treatment with SRI-41664 or SRI-42127 compounds. […] The protein levels of Bcl2 and Mcl1 were evaluated in the established U251 and PDGx XD456 glioma cell lines in the control (vehicle treatment) and after treatment with SRI-41664 or SRI-42127 compounds for 48 hours.
(In general: Quantitative PCR measures a nucleic acid by following its amplification.)

Data set [3] deals with Bcl2 and Mcl1 mRNAs in U87 cell line. Described as above. The class given is cell-based. To be noted: U87, 10 uM for 24 hours. On the procedure:
as §1, §2, §3

The test system of the next data set is U251 cell line. The data set is described as follows: soft agar colony formation assay. Conditions: 3 uM. It counts as cell-based. On the procedure:
(§4) The soft agar colony formation assay was performed by using 0.9% and 0.45% agarose for the bottom and the top layers, respectively; cells were incorporated in the top layer. Seaplaque low-melting temperature agarose was purchased from Lonza (Rockland, ME). Five hundred cells per well were utilized in both, the soft agar and the attached colony formation assays, which were performed in 6 well plates; cells were treated with vehicle as the control or with the desired drugs, which were administered twice per week for three weeks. The Crystal violet solution (0.1%) was utilized for colony staining in both assays. The colonies were counted after three weeks of treatment; the plate images were obtained by using Amersham Imager-600 reader (Piscataway, NJ).
(§5) Graphs in FIG. 8D illustrate the average numbers of colonies formed by established U251 and PDGx XD456 cell lines in the attached cell colony formation assay and in the soft agar colony formation assay, which represents anchorage independent cell growth.

For the next data set, the system named is XD456 cell line. The data set is described as follows: soft agar colony formation assay. Conditions: 3 uM. The class given is cell-based. On the procedure:
as §4, §5

In data set [4] the test system is HuR cytoplasmic translocation in primary microglial cells. The data set is described as follows: Imagestream single cell flow cytometry of HuR location in LPS-activated microglia. The class given is cell-based, mouse. To be noted: 1 μM. On the procedure:
Cultured primary microglial cells isolated from neonatal mouse brain were treated with LPS to achieve activation. Cells were then treated with varying doses of SRI-42127 or vehicle. Imagestream single cell flow cytometry was used to track the location of HuR within microglial cells as depicted in FIG. 11, Panel A. DAPI was used as a flow marker for nuclear localization. For each cell, the percentage of HuR immunofluorescence that colocalized with the nuclear compartment versus the cytoplasmic compartment was quantified.
In the unstimulated state (DMSO), the characteristic nuclear predominance of HuR was observed as reflected by a low percentage of cells with high HuR in the cytoplasm. With LPS stimulation, there was an ˜8-fold increase in the percent of cells with high levels of HuR in the cytoplasm (˜60%). With SRI-42127 treatment, there was a significant dose-dependent decrease in cells with high cytoplasmic HuR. At 1 μM of SRI-42127, the percent of cells with high HuR was similar to resting (unactivated) microglia (˜10%).
In general terms: A flow cytometer gives signals particle by particle.

Data set [5] deals with secreted inflammatory factors of microglia. Nature of the data set: ELISA of secreted factors in culture medium of LPS-activated microglia. The class given is cell-based, mouse. On the procedure:
Major chemokines CXCL1, CXCL2 and CCL3 were suppressed by more than 2-fold. There was a mixed effect on markers of M2-like markers, with TGF-β1 and YM1 increasing and IL-10 decreasing. As these inflammatory factors were secreted, they were quantified by ELISA in culture medium. The greatest effect was with IL-6 which was suppressed at a lower dose of SRI-42127 (1.7-fold at 0.1 μM) and nearly 10-fold at 1.0 μM. IL-1β and TNF-α were suppressed by 5-fold at 1.0 μM.

For data set [6], the system named is secreted proteins of astrocytes. Nature of the data set: ELISA of secreted proteins in culture media of LPS-stimulated astrocytes. It counts as cell-based. On the procedure:
Next, the impact of SRI-42127 on induction of inflammatory cytokine mRNAs as depicted in FIG. 15, Panel B was assessed. A significant 3-4-fold suppression of mRNA for IL-1β, IL-6, CXCL1, and CCL2 was observed. […] All chemokines were likewise suppressed, including KC, CCL2, CCL3, CCL4, CXCL10, from 2.5 to 8.1-fold.
Background: In an ELISA, binding on a coated surface is turned into a signal by an enzyme label.

Another data set relates to spinal cord injury. The data set is described as follows: mid-thoracic contusion spinal cord injury in mice. The class given is in vivo. On the procedure: Wild-type male mice were subjected to a mid-thoracic contusion injury and then treated with SRI-42127 (15 mg/kg) every 8 hours for 4 days, starting 1 hour after injury. […] Not to be bound by theory, similar to spinal cord injury, chronic pain signaling is triggered by activation of microglia and astroglia in the spinal cord and production of inflammatory mediators (e.g. TNF-α, IL-1β, IL-6, INOS, CCL2) that induce hyperexcitation of sensory neurons in the dorsal horn. Mice underwent sciatic nerve lesioning to produce a spared nerve injury and then received SRI-42127 (15 mg/kg) or vehicle every 6 hours for 4 days (starting 1 h after injury). Mechanical sensitivity was assessed at day 7 post-injury. […] Following this test, a subset of mice in the DMSO-treated group was given an acute administration of SRI-42127 (or DMSO) and their mechanical sensitivity was tested at 30 minutes and 60 minutes post-administration. Acute treatment with SRI-42127 reversed allodynia in these mice for at least 60 minutes (p<0.01, FIG. 21, Panel D).

In brackets after ≈: the same amount, converted by molar mass.

IRAK1, sequence (P51617 whole entry): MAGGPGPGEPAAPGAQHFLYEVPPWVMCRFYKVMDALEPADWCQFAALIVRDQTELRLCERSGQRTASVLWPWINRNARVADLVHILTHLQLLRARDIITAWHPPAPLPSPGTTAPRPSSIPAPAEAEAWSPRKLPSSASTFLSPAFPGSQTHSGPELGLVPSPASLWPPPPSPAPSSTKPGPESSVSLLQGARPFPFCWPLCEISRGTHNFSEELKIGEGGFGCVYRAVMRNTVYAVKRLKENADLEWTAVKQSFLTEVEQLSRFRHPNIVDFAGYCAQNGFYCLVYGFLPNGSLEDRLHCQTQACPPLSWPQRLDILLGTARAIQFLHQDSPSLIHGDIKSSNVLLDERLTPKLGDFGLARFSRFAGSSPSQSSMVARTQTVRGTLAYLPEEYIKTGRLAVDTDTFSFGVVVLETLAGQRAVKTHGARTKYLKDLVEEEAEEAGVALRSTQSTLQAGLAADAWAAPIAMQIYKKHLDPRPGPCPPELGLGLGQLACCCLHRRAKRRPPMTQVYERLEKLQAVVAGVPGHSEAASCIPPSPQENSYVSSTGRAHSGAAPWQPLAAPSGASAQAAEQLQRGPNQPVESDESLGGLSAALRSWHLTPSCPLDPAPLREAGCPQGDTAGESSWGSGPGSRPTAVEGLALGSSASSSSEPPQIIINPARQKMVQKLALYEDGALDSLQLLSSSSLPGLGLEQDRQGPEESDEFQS

Take `CN(c1ccc2ncc(-c3ccc4cn[nH]c4c3)n2n1)C1CCOCC1` [Compound 19]: the solubility in data set [1] came out at 2.4 µM (≈ 0.836 µg/mL). The same compound showed a fraction unbound in the data set “Plasma protein binding” of 0.0356. The IC50 at IRAK1 came out at 319 nM. For the same compound, the entries for the “decrease of Bcl2/18S mRNA ratio” value in [2] and in [3] were 96±2% and 95±2%, respectively. The “decrease of Mcl1/18S mRNA ratio” value in data set [2] was 90±9%; in [3], 86±7%. Moreover, the number of colonies with U251 cell line is given as 90+70; in the data set on XD456 cell line, 39+6. Also, the “percent of cells with high cytoplasmic HuR” value in data set [4] is given as ~10%. Moreover, the entries for the “suppression of secreted IL-6” value in data set [5] (0.1 μM), in [5] (1.0 μM) and in [6] (1.0 μM) were 1.7 fold, ~10 fold and 8.8 fold, respectively. The “suppression of secreted IL-1β” value in data set [5] (1.0 μM) came out at 5 fold. The “suppression of secreted TNF-α” value was 5 fold in data set [5] (1.0 μM) and 5.7 fold in data set [6] (1.0 μM). Besides, the “suppression of secreted chemokines KC, CCL2, CCL3, CCL4, CXCL10” value in data set [6] is listed as 2.5 to 8.1 fold. The “increase in surviving neurons in the epicenter of injury” value with spinal cord injury (15 mg/kg every 8 hours for 4 days, stereology 2 weeks post injury) is > 2 fold. For the same compound, the “increase in neuronal counts by stereology” value in the data set with spinal cord injury (4 weeks post SCI (FIG. 21, Panel B)) was > 50%.

These data come from patent US12435091B2, “RNA-binding protein multimerization inhibitors and methods of use thereof” (THE UAB RESEARCH FOUNDATION, priority 2020, dated 2025).
